# In PubChem BioAssay (NCI):
#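 Exposure lasted 48 hours, with cells grown in 96-well plates and compounds tested at five concentrations. The concentration for 50% growth inhibition is given as GI50. TGI denotes the concentration required for complete inhibition of growth.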
# Assays:
# Assay in all cases: NCI tumour cell line growth inhibition, 48 h
# HL-60(TB) leukemia = tested on: HL-60(TB) leukemia
# HS 578T breast = tested on: HS 578T breast
# 786-0 renal = tested on: 786-0 renal
# A498 renal = tested on: A498 renal
# A549 NSCLC = tested on: A549 NSCLC
# ACHN renal = tested on: ACHN renal
# BT-549 breast = tested on: BT-549 breast
# CAKI-1 renal = tested on: CAKI-1 renal
# CCRF-CEM leukemia = tested on: CCRF-CEM leukemia
# COLO 205 colon = tested on: COLO 205 colon
# DU-145 prostate = tested on: DU-145 prostate
# EKVX NSCLC = tested on: EKVX NSCLC
# HCC-2998 colon = tested on: HCC-2998 colon
# HCT-116 colon = tested on: HCT-116 colon
# HCT-15 colon = tested on: HCT-15 colon
# HOP-62 NSCLC = tested on: HOP-62 NSCLC
# HOP-92 NSCLC = tested on: HOP-92 NSCLC
# HT29 colon = tested on: HT29 colon
# IGROV1 ovarian = tested on: IGROV1 ovarian
# K-562 leukemia = tested on: K-562 leukemia
# KM12 colon = tested on: KM12 colon
# LOX IMVI melanoma = tested on: LOX IMVI melanoma
# M14 melanoma = tested on: M14 melanoma
# MALME-3M melanoma = tested on: MALME-3M melanoma
# MCF7 breast = tested on: MCF7 breast
# MDA-MB-231 breast = tested on: MDA-MB-231 breast
# MDA-MB-435 = tested on: MDA-MB-435
# MOLT-4 leukemia = tested on: MOLT-4 leukemia
# NCI-H226 lung = tested on: NCI-H226 lung
# NCI-H23 lung = tested on: NCI-H23 lung
# NCI-H460 lung = tested on: NCI-H460 lung
# NCI-H522 lung = tested on: NCI-H522 lung
# NCI/ADR-RES ovarian = tested on: NCI/ADR-RES ovarian
# OVCAR-3 ovarian = tested on: OVCAR-3 ovarian
# OVCAR-4 ovarian = tested on: OVCAR-4 ovarian
# OVCAR-5 ovarian = tested on: OVCAR-5 ovarian
# OVCAR-8 ovarian = tested on: OVCAR-8 ovarian
# PC-3 prostate = tested on: PC-3 prostate
# RPMI-8226 leukemia = tested on: RPMI-8226 leukemia
# SF-268 CNS = tested on: SF-268 CNS
# SF-295 CNS = tested on: SF-295 CNS
# SF-539 CNS = tested on: SF-539 CNS
# SK-MEL-2 melanoma = tested on: SK-MEL-2 melanoma
# SK-MEL-28 melanoma = tested on: SK-MEL-28 melanoma
# SK-MEL-5 melanoma = tested on: SK-MEL-5 melanoma
# SK-OV-3 ovarian = tested on: SK-OV-3 ovarian
# SN12C renal = tested on: SN12C renal
# SNB-19 CNS = tested on: SNB-19 CNS
# SNB-75 CNS = tested on: SNB-75 CNS
# SR leukemia = tested on: SR leukemia
# SW-620 colon = tested on: SW-620 colon
# T-47D breast = tested on: T-47D breast
# TK-10 renal = tested on: TK-10 renal
# U251 CNS = tested on: U251 CNS
# UACC-257 melanoma = tested on: UACC-257 melanoma
# UACC-62 melanoma = tested on: UACC-62 melanoma
# UO-31 renal = tested on: UO-31 renal
smiles,measurement,setting,value
N=C(N)c1ccc(-c2ccc(-c3ccc(Cl)c(Cl)c3)o2)cc1,GI50,HL-60(TB) leukemia,1.55 µM
same,TGI,HL-60(TB) leukemia,4.05 µM
same,GI50,HS 578T breast,2.1 µM
same,TGI,HS 578T breast,5.52 µM
Cc1cc2c(cc1Cl)SC(C(=O)c1ccc(Cl)c(Cl)c1)NS2(=O)=O (stereo not drawn),GI50,786-0 renal,37.3 µM
same,TGI,786-0 renal,97 µM
same,GI50,A498 renal,70.5 µM
same,TGI,A498 renal,> 100 µM
same,GI50,A549 NSCLC,45.2 µM
same,TGI,A549 NSCLC,> 100 µM
same,GI50,ACHN renal,29.8 µM
same,TGI,ACHN renal,85.6 µM
same,GI50,BT-549 breast,29.8 µM
same,TGI,BT-549 breast,56.5 µM
same,GI50,CAKI-1 renal,97.4 µM
same,TGI,CAKI-1 renal,> 100 µM
same,GI50,CCRF-CEM leukemia,27.9 µM
same,TGI,CCRF-CEM leukemia,61.2 µM
same,GI50,COLO 205 colon,21 µM
same,TGI,COLO 205 colon,44 µM
same,GI50,DU-145 prostate,32.8 µM
same,TGI,DU-145 prostate,87.6 µM
same,GI50,EKVX NSCLC,37.5 µM
same,TGI,EKVX NSCLC,> 100 µM
same,GI50,HCC-2998 colon,19.8 µM
same,TGI,HCC-2998 colon,35.1 µM
same,GI50,HCT-116 colon,21.9 µM
same,TGI,HCT-116 colon,40.8 µM
same,GI50,HCT-15 colon,28.7 µM
same,TGI,HCT-15 colon,76.1 µM
same,GI50,HL-60(TB) leukemia,39.8 µM
same,TGI,HL-60(TB) leukemia,80.6 µM
same,GI50,HOP-62 NSCLC,39.3 µM
same,TGI,HOP-62 NSCLC,> 100 µM
same,GI50,HOP-92 NSCLC,25.2 µM
same,TGI,HOP-92 NSCLC,65.9 µM
same,GI50,HS 578T breast,70 µM
same,TGI,HS 578T breast,> 100 µM
same,GI50,HT29 colon,36.1 µM
same,TGI,HT29 colon,> 100 µM
same,GI50,IGROV1 ovarian,40.9 µM
same,TGI,IGROV1 ovarian,> 100 µM
same,GI50,K-562 leukemia,35.6 µM
same,TGI,K-562 leukemia,> 100 µM
same,GI50,KM12 colon,30.9 µM
same,TGI,KM12 colon,80.9 µM
same,GI50,LOX IMVI melanoma,22.6 µM
same,TGI,LOX IMVI melanoma,48.7 µM
same,GI50,M14 melanoma,43.9 µM
same,TGI,M14 melanoma,> 100 µM
same,GI50,MALME-3M melanoma,45.3 µM
same,TGI,MALME-3M melanoma,> 100 µM
same,GI50,MCF7 breast,21.2 µM
same,TGI,MCF7 breast,47.3 µM
same,GI50,MDA-MB-231 breast,36.7 µM
same,TGI,MDA-MB-231 breast,> 100 µM
same,GI50,MDA-MB-435,26.7 µM
same,TGI,MDA-MB-435,65.6 µM
same,GI50,MOLT-4 leukemia,29.5 µM
same,TGI,MOLT-4 leukemia,64.4 µM
same,GI50,NCI-H226 lung,49.9 µM
same,TGI,NCI-H226 lung,> 100 µM
same,GI50,NCI-H23 lung,34.1 µM
same,TGI,NCI-H23 lung,89.5 µM
same,GI50,NCI-H460 lung,23.5 µM
same,TGI,NCI-H460 lung,50.7 µM
same,GI50,NCI-H522 lung,28.9 µM
same,TGI,NCI-H522 lung,74.4 µM
same,GI50,NCI/ADR-RES ovarian,38.6 µM
same,TGI,NCI/ADR-RES ovarian,> 100 µM
same,GI50,OVCAR-3 ovarian,40.7 µM
same,TGI,OVCAR-3 ovarian,> 100 µM
same,GI50,OVCAR-4 ovarian,27.1 µM
same,TGI,OVCAR-4 ovarian,71.5 µM
same,GI50,OVCAR-5 ovarian,49.2 µM
same,TGI,OVCAR-5 ovarian,> 100 µM
same,GI50,OVCAR-8 ovarian,44.5 µM
same,TGI,OVCAR-8 ovarian,> 100 µM
same,GI50,PC-3 prostate,32.5 µM
same,TGI,PC-3 prostate,> 100 µM
same,GI50,RPMI-8226 leukemia,24.6 µM
same,TGI,RPMI-8226 leukemia,56 µM
same,GI50,SF-268 CNS,33.6 µM
same,TGI,SF-268 CNS,88.6 µM
same,GI50,SF-295 CNS,34.9 µM
same,TGI,SF-295 CNS,> 100 µM
same,GI50,SF-539 CNS,19.8 µM
same,TGI,SF-539 CNS,42.2 µM
same,GI50,SK-MEL-2 melanoma,40.2 µM
same,TGI,SK-MEL-2 melanoma,> 100 µM
same,GI50,SK-MEL-28 melanoma,30.4 µM
same,TGI,SK-MEL-28 melanoma,88.9 µM
same,GI50,SK-MEL-5 melanoma,42.3 µM
same,TGI,SK-MEL-5 melanoma,> 100 µM
same,GI50,SK-OV-3 ovarian,33.7 µM
same,TGI,SK-OV-3 ovarian,91.4 µM
same,GI50,SN12C renal,32 µM
same,TGI,SN12C renal,86.4 µM
same,GI50,SNB-19 CNS,35 µM
same,TGI,SNB-19 CNS,> 100 µM
same,GI50,SNB-75 CNS,31.3 µM
same,TGI,SNB-75 CNS,81.1 µM
same,GI50,SR leukemia,31.4 µM
same,TGI,SR leukemia,81.8 µM
same,GI50,SW-620 colon,27.6 µM
same,TGI,SW-620 colon,72.9 µM
same,GI50,T-47D breast,19.9 µM
same,TGI,T-47D breast,49.9 µM
same,GI50,TK-10 renal,84.7 µM
same,TGI,TK-10 renal,> 100 µM
same,GI50,U251 CNS,34.4 µM
same,TGI,U251 CNS,> 100 µM
same,GI50,UACC-257 melanoma,67.2 µM
same,TGI,UACC-257 melanoma,> 100 µM
same,GI50,UACC-62 melanoma,22 µM
same,TGI,UACC-62 melanoma,42.9 µM
same,GI50,UO-31 renal,42.2 µM
same,TGI,UO-31 renal,> 100 µM
